Measured values published in paper PMC7442255, “Characterization of the Corynebacterium glutamicum dehydroshikimate dehydratase QsuB and its potential for microbial production of protocatechuic acid” (PLoS ONE, 2020).
“And” between values parts separate entries of the source, which are not always exact repeats. Equal values may be shown once. Read-outs that look alike come from different tables or passages of the source. Blank lines part the entries; values can stand above or below the molecule they belong to.

Experiments:
[1] = molecular target: N-QsuB (Corynebacterium glutamicum, UniProt Q8NT86); assay: DSD activity assay of purified N-QsuB (N-terminal domain of QsuB); assay type: biochemical
[2] = molecular target: QsuB (Corynebacterium glutamicum, UniProt Q8NT86); assay: DSD activity assay of purified QsuB (3,4-DHBA formation at 290 nm); assay type: biochemical
[3] = test system: QsuB C-terminal domain; assay: Test of dioxygenase activity of the C-terminal domain towards 3,4-DHBA (UV spectrum); assay type: biochemical, Corynebacterium glutamicum; settings: pH 7.5, incubation with QsuB up to 60 min
Experimental: An inhibition type and inhibition constants of the enzyme reaction were determined by a graphical method. The experimental data were plotted as (Vmax–v)/v versus the inhibitor concentration (0 ‒ 0.4 mM 3,4-DHBA) at 0.5/ 1/ 1.5 mM concentrations of DHS, where Vmax and v represented the maximal velocity and the velocity in the absence and presence of inhibitor with given concentrations of the substrate, respectively. The dioxygenase activity of the C-terminal domain was tested with the crude extracts in the reaction mixture of 0.1 M Tris/HCl buffer (pH 7.5), 10 mM MgCl2, 0.1 mM DHBA, and 30 nM of overall protein.
Thus, a possible activity of the C-terminal domain leading to conversion of 3,4-DHBA into another product was not detected under our experimental conditions.

[4] = test system: C. glutamicum; settings: cited from earlier work
[5] = test system: E. coli; settings: cited from earlier work
[6] = test system: AsbF B. t. 97-27; set-up: method as in PMID 18975921; settings: pH 8.6, 37°C ref [12], cited from earlier work
[7] = test system: QuiC1; set-up: method as in PMID 27706847; settings: cited from earlier work
[8] = molecular target: N-QsuB, N-terminal domain of QsuB (Corynebacterium glutamicum); assay: SEC; Superose 6 Increase 10/300 GL; 50 mM sodium phosphate (pH 7.0), 150 mM NaCl; 0.5 ml/min; A280; mass from a calibration curve of standard proteins; self-association of N-QsuB
[9] = molecular target: QsuB, dehydroshikimate dehydratase (DSD) from Corynebacterium glutamicum (Corynebacterium glutamicum); assay: SEC; Superose 6 Increase 10/300 GL; 50 mM Tris-HCl (pH 7.5), 500 mM NaCl, 5% v/v glycerol; 0.4 ml/min; A280; mass from a calibration curve of standard proteins; self-association of QsuB
[10] = substrate: O=C(O)C1=CC(=O)C(O)C(O)C1; assay: DSD activity assay of purified N-QsuB (N-terminal domain of QsuB); assay type: biochemical, Corynebacterium glutamicum; settings: other: N-QsuB, pH 7.5, 20°C
[11] = N-QsuB, 1 mM DHS, 10 mM metal salt, normalized against cobalt
[12] = QsuB, 1 mM DHS, 10 mM metal salt, normalized against cobalt

Sequence of QsuB (Q8NT86 entry or part of it): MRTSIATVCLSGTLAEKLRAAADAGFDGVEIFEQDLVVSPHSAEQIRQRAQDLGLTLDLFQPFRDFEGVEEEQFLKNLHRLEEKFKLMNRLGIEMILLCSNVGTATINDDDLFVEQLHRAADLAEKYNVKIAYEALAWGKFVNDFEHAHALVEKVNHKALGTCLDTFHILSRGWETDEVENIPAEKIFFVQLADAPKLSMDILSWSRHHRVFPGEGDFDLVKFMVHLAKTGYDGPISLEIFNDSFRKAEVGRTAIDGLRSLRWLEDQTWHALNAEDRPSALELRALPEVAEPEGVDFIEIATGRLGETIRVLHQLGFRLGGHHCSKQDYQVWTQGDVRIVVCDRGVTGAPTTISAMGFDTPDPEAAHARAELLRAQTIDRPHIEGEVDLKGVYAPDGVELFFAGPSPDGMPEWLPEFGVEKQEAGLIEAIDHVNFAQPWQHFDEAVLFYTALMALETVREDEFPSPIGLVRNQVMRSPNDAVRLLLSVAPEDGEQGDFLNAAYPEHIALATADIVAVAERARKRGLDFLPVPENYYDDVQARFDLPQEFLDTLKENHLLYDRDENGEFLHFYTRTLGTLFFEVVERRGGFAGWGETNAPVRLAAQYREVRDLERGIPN

Molecule: O=C(O)c1ccc(O)c(O)c1 [3,4-DHBA, 3,4-dihydroxybenzoic acid]
inhibition type ([1]; N-QsuB, quotient velocity plot): noncompetitive inhibition
Ki ([1]; N-QsuB, quotient velocity plot, 0.5/1/1.5 mM DHS, read-out: Ki (binding to the enzyme)): ~690 µM
inhibition type ([2]; QsuB, quotient velocity plot): mix inhibition type
Ki' (binding to the enzyme-substrate complex) ([2]; QsuB, quotient velocity plot, 0.5/1/1.5 mM DHS): ~ 0.96 mM
Ki ([2]; QsuB, quotient velocity plot, 0.5/1/1.5 mM DHS, read-out: Ki (binding to the enzyme)): ~380 µM
conversion of 3,4-DHBA (change of UV spectrum) [3]: no difference in the UV spectrum was observed

Molecule: [Cl-].[Cl-].[Co+2] [Co, CoCl2]
Specific activity (relative DSD activity with divalent metal) [1]: 100%
Co^2+ concentration at which growth is possible [4]: 2 mM
Specific activity (relative DSD activity with divalent metal) [2]: 100%
Co^2+ concentration tolerated [5]: < 1 mM

Molecule: O=C(O)C1=CC(=O)C(O)C(O)C1 (stereo not shown) [DHS, 3-dehydroshikimic acid]
IC50 ([1]; N-QsuB, substrate inhibition, calculated from data of Fig 6, read-out: IC50 (decrease of DSD activity by substrate DHS)): ~5500 µM
kcat ([2]; QsuB, substrate DHS, pH 7.5, 20°C): 60.8 ± 0.9 s⁻¹
IC50 ([2]; QsuB, substrate inhibition, calculated from data of Fig 6, read-out: IC50 (decrease of DSD activity by substrate DHS)): ~4200 µM
Km ([6]; read-out: Km (DHS)): 125 ± 14 µM
kcat ([6]; substrate DHS): 3.6 ± 0.2 s⁻¹
Km ([7]; QuiC1, pH 7.5, 25°C ref [15], read-out: Km (DHS)): 331 ± 51 µM
kcat ([7]; QuiC1, substrate DHS, pH 7.5, 25°C ref [15]): 163.6 ± 8.5 s⁻¹

Molecule: O=C(O)CN(CCN(CC(=O)O)CC(=O)O)CC(=O)O [EDTA]
effect on DSD activity without added metal ions [1]: inhibited
effect on DSD activity without added metal ions [2]: inhibited

Molecule: [Cl-].[Cl-].[Mg+2] [Mg, MgCl2]
Specific activity (relative DSD activity with divalent metal) [1, 11]: 22%
Specific activity (relative DSD activity with divalent metal) [2, 12]: 24%

Molecule: [Cl][Mn][Cl] [Mn, MnCl2]
Specific activity (relative DSD activity with divalent metal) [1, 11]: 21%
Specific activity (relative DSD activity with divalent metal) [2, 12]: 17%

stoichiometry N [8]: 2
Molecule: N-QsuB, N-terminal domain of QsuB (domain or fragment)

percent present as monomers [9]: 15%
percent present as octamers [9]: 60%
percent present as tetramers [9]: 25%
stoichiometry N [9]: 8 and 4
Molecule: QsuB, dehydroshikimate dehydratase (DSD) from Corynebacterium glutamicum (enzyme)

B1: N-QsuB (Corynebacterium glutamicum ATCC 13032) (protein)
chain: MRTSIATVCLSGTLAEKLRAAADAGFDGVEIFEQDLVVSPHSAEQIRQRAQDLGLTLDLFQPFRDFEGVEEEQFLKNLHRLEEKFKLMNRLGIEMILLCSNVGTATINDDDLFVEQLHRAADLAEKYNVKIAYEALAWGKFVNDFEHAHALVEKVNHKALGTCLDTFHILSRGWETDEVENIPAEKIFFVQLADAPKLSMDILSWSRHHRVFPGEGDFDLVKFMVHLAKTGYDGPISLEIFNDSFRKAEVGRTAIDGLRSLRWLEDQTWHALNAEDRPSALELRALPEVAEPEGVDF
Km [10]: 473 ± 71 µM
kcat [10]: 23.4 ± 0.4 s⁻¹
kcat/Km [10]: 49500 ± 5600 M⁻¹ s⁻¹
